# Values of other authors as cited in patent US20060078922A1, “Novel purified polypeptides from haemophilus influenzae” (Affinium Pharmaceuticals, Inc., priority 2003, published 2006).
# Target: phosphopantetheine adenyltransferase (Escherichia coli, UniProt P0A6I6)
# Conditions: qualitative statement, species not given
# phosphopantetheine adenyltransferase, sequence (P0A6I6 whole entry): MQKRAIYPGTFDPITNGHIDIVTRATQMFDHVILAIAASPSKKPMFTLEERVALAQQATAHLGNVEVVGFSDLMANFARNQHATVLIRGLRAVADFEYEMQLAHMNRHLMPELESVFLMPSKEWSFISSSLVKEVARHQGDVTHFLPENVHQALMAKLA
smiles,measurement,value
CC(C)(COP(=O)(O)OP(=O)(O)OC[C@H]1O[C@@H](n2cnc3c(N)ncnc32)[C@H](O)[C@@H]1OP(=O)(O)O)[C@@H](O)C(=O)NCCC(=O)NCCS [Coenzyme-A],inhibition of phosphopantetheine adenyltransferase,known to inhibit
